Measurements from US20110280958A1 (priority 2010, published 2011).

Legend:
Alternaria solani = conditions: in vivo
Phytophthora infestans = conditions: in vivo
Venturia inaequalis = test: Venturia test (apples)/preventive; type: in vivo; conditions: preventive spray, evaluated 10 days after inoculation
Method: Solvent: 24.5 parts by weight of acetone • 24.5 parts by weight of dimethylacetamide
Emulsifier: 1 part by weight of alkylaryl polyglycol ether
To produce a suitable preparation of active compound, 1 part by weight of active compound is mixed with the stated amounts of solvent and emulsifier, and the concentrate is diluted with water to the desired concentration. To test for preventive activity, young plants are sprayed with the preparation of active compound at the stated rate of application. After the spray coating has dried on, the plants are inoculated with an aqueous conidia suspension of the causal agent of apple scab (Venturia inaequalis) and then remain for 1 day in an incubation cabinet at approximately 20° C. and a relative atmospheric humidity of 100%. The plants are then placed in a greenhouse at approximately 21° C. and a relative atmospheric humidity of approximately 90%. The test is evaluated 10 days after the inoculation. 0% means an efficacy which corresponds to that of the untreated control, while an efficacy of 100% means that no disease is observed.

Structure (SMILES) | Efficacy in % found (Alternaria solani) [%] | Efficacy in % found (Phytophthora infestans) [%] | Efficacy in % found (Venturia inaequalis; 250 ppm a.i.) [%] | Efficacy in % found (Venturia inaequalis; 25 ppm a.i.) [%]
O=S(=O)([O-])[O-].[Mg+2] [(1-2), magnesium sulphate] | 0 | – | – | –
O=S(=O)([O-])[O-].[Mn+2] [(3-2), manganese sulphate] | 0 | 0 | – | –
O=S(=O)([O-])[O-].[Fe+2] [(3-3), iron sulphate] | 35 | – | 43 | –
O=S(=O)([O-])[O-].[Zn+2] [(3-7), zinc sulphate] | 23 | 35 | 19 | –
Cn1c(=O)c2sc3c(=O)n(C)c(=O)c3sc2c1=O [(I-1), 2,6-dimethyl-1H,5H-[1,4]dithiino[2,3-c:5,6-c′]dipyrrole-1,3,5,7(2H,6H)-tetrone] | – | 9 | – | 32
